# Assays:
# giant foxtail = assay: Test A pre-/postemergence greenhouse test; assay type: in vivo, Setaria faberi; settings: for Foxtail, Giant plant response rating: 0 to 100 scale; for Plant response rating, Foxtail, Giant: 0 to 100 scale where 0 is no effect and 100 is complete control
# Summary of the method: (§1)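 Visual injury ratings, made relative to untreated controls roughly ten days after treatment, cover both preemergence and postemergence application. Compounds in a surfactant-containing non-phytotoxic solvent were sprayed onto the soil surface after sowing and, simultaneously, onto young plants at the one- to two-leaf stage.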
# velvetleaf = assay: Test A pre-/postemergence greenhouse test; assay type: in vivo, Abutilon theophrasti; settings: for Velvetleaf plant response rating: 0 to 100 scale; for Plant response rating, Velvetleaf: 0 to 100 scale where 0 is no effect and 100 is complete control
# Summary of the method: as §1
# wheat = assay: Test C pre-/postemergence test; assay type: in vivo, Triticum aestivum; settings: for Plant response rating, Wheat: 31 g ai/ha, scale 0 to 100 (0 no effect, 100 complete control)
# Summary of the method: (§2)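 Seeds were planted and treated preemergence with test chemical in a non-phytotoxic solvent mixture containing surfactant. Postemergence applications of the same formulation went onto plants 2 to 18 cm tall (1- to 4-leaf stage). A dash marks no test result.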
# Russian thistle = assay: Test C pre-/postemergence test; assay type: in vivo, Salsola kali; settings: for Plant response rating, Russian Thistle: 31 g ai/ha, scale 0 to 100 (0 no effect, 100 complete control)
# Summary of the method: as §2
# common ragweed = assay: Test C pre-/postemergence test; assay type: in vivo, Ambrosia elation; settings: for Plant response rating, Ragweed: 31 g ai/ha, scale 0 to 100 (0 no effect, 100 complete control)
# Summary of the method: as §2
# barnyardgrass = assay: Test C flooded paddy test; assay type: in vivo, Echinochloa crus-galli; settings: Flood
# Summary of the method: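 In-water treatment: compound dosed into 3 cm flood over soil, water level unchanged throughout. Controls run alongside; visual assessment at day 13–15.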
# green foxtail = assay: Test F preemergence test; assay type: in vivo, Setaria viridis; settings: scale 0 to 100
# Summary of the method: (§3)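 Compound in a non-phytotoxic solvent blend with surfactant is applied preemergence to planted seeds or postemergence to sugarcane plants. Plants and controls stay in the greenhouse 14 to 21 days before visual comparison.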
# purple nutsedge = assay: Test F preemergence test; assay type: in vivo, Cyperus rotundus; settings: scale 0 to 100
# Summary of the method: as §3
# southern sandbur = assay: Test F preemergence test; assay type: in vivo, Cenchrus echinatus; settings: scale 0 to 100; for Sandbur plant response rating: 125 g ai/ha
# Summary of the method: as §3
# annual bluegrass = assay: Test F preemergence test; assay type: in vivo, Poa annua; settings: scale 0 to 100
# Summary of the method: as §3
# field bindweed = assay: Test F preemergence test; assay type: in vivo, Convolvulus arvensis; settings: scale 0 to 100
# Summary of the method: as §3
# common mallow = assay: Test F preemergence test; assay type: in vivo, Malva sylvestris; settings: scale 0 to 100
# Summary of the method: as §3
# [1] = Postemergence, 125 g ai/ha, 0 is no effect, 100 is complete control
# [2] = Postemergence, 500 g ai/ha, 0 is no effect, 100 is complete control
# [3] = Preemergence, 125 g ai/ha, 0 no effect, 100 complete control
# [4] = preemergence, 250 g ai/ha, scale 0 (no effect) to 100 (complete control)
# [5] = 62 g ai/ha, Preemergence, scale 0 to 100
# [6] = 125 g ai/ha, preemergence, scale 0 (no effect) to 100 (complete control)
# [7] = 250 g ai/ha, scale 0 to 100, 0 no effect, 100 complete control, 13 to 15 days
# [8] = 62 g ai/ha, scale 0 to 100 (0 no effect, 100 complete control)
smiles,measurement,setting,value
Cc1cc[n+]([O-])c(S(=O)(=O)C(Cl)c2c(C(F)(F)F)nn(C)c2OCC(F)(F)F)c1 (racemic) [Compound 37],"Foxtail, Giant plant response rating",giant foxtail; [1],30
same,"Foxtail, Giant plant response rating",giant foxtail; [2],80
same,"Foxtail, Giant plant response rating",giant foxtail; [3],90
same,"Plant response rating, Foxtail, Giant","giant foxtail; Preemergence, 500 g ai/ha",100
same,Velvetleaf plant response rating,velvetleaf; [1],0
same,Velvetleaf plant response rating,velvetleaf; [2],10
same,Velvetleaf plant response rating,velvetleaf; [3],40
same,"Plant response rating, Velvetleaf","velvetleaf; Preemergence, 500 g ai/ha",80
same,"Plant response rating, Wheat",wheat; Preemergence,0
same,Wheat plant response rating,wheat; [4],30
same,"Plant response rating, Russian Thistle",Russian thistle; Preemergence,100
same,Russian Thistle plant response rating,Russian thistle; [4],100
same,Ragweed plant response rating,common ragweed; [5],0
same,Ragweed plant response rating,common ragweed; [6],70
same,"Plant response rating, Ragweed",common ragweed; Preemergence,0
same,Ragweed plant response rating,common ragweed; [4],80
same,"Plant response rating, Barnyardgrass","barnyardgrass; 31 g ai/ha, scale 0 to 100 (0 no effect, 100 complete control)",10
same,"Plant response rating, Barnyardgrass","barnyardgrass; 62 g ai/ha, scale 0 to 100, 0 no effect, 100 complete control, 13 to 15 days",10
same,"Plant response rating, Barnyardgrass","barnyardgrass; 125 g ai/ha, scale 0 to 100, 0 no effect, 100 complete control, 13 to 15 days",10
same,"Plant response rating, Barnyardgrass",barnyardgrass; [7],80
same,"Plant response rating, Foxtail, Green","green foxtail; 16 g ai/ha, preemergence",0
same,"Foxtail, Green plant response rating","green foxtail; 62 g ai/ha, Preemergence",15
same,"Foxtail, Green plant response rating","green foxtail; 125 g ai/ha, preemergence",90
same,"Plant response rating, Foxtail, Green","green foxtail; Preemergence, 31 g ai/ha",10
same,"Plant response rating, Purple Nutsedge","purple nutsedge; 16 g ai/ha, preemergence",0
same,Purple Nutsedge plant response rating,"purple nutsedge; 62 g ai/ha, Preemergence",0
same,Purple Nutsedge plant response rating,"purple nutsedge; 125 g ai/ha, preemergence",0
same,"Plant response rating, Purple Nutsedge","purple nutsedge; Preemergence, 31 g ai/ha",0
same,"Plant response rating, Sandbur","southern sandbur; 16 g ai/ha, preemergence",35
same,Sandbur plant response rating,southern sandbur; preemergence,90
same,"Plant response rating, Sandbur","southern sandbur; Preemergence, 62 g ai/ha",90
same,"Plant response rating, Sandbur","southern sandbur; Preemergence, 31 g ai/ha",70
same,"Plant response rating, Bluegrass","annual bluegrass; 16 g ai/ha, preemergence",0
same,Bluegrass plant response rating,"annual bluegrass; 62 g ai/ha, Preemergence",60
same,Bluegrass plant response rating,"annual bluegrass; 125 g ai/ha, preemergence",80
same,"Plant response rating, Bluegrass","annual bluegrass; Preemergence, 31 g ai/ha",10
same,"Plant response rating, Field Bindweed","field bindweed; 16 g ai/ha, preemergence",0
same,Field Bindweed plant response rating,"field bindweed; 62 g ai/ha, Preemergence",0
same,Field Bindweed plant response rating,"field bindweed; 125 g ai/ha, preemergence",0
same,"Plant response rating, Field Bindweed","field bindweed; Preemergence, 31 g ai/ha",0
same,"Plant response rating, Mallow","common mallow; 16 g ai/ha, preemergence",0
same,Mallow plant response rating,"common mallow; 62 g ai/ha, Preemergence",0
same,Mallow plant response rating,"common mallow; 125 g ai/ha, preemergence",90
same,"Plant response rating, Mallow","common mallow; Preemergence, 31 g ai/ha",0
CC(Oc1c(C[S+]([O-])c2ccc(Cl)c[n+]2[O-])c(C(F)(F)F)nn1C)C(F)(F)F (stereo not drawn) [Compound 87],"Plant response rating, Foxtail, Giant","giant foxtail; Postemergence, 125 g ai/ha",90
same,"Foxtail, Giant plant response rating",giant foxtail; [2],90
same,"Foxtail, Giant plant response rating",giant foxtail; [3],90
same,"Plant response rating, Foxtail, Giant","giant foxtail; Preemergence, 500 g ai/ha",100
same,"Plant response rating, Velvetleaf","velvetleaf; Postemergence, 125 g ai/ha",70
same,Velvetleaf plant response rating,velvetleaf; [2],80
same,Velvetleaf plant response rating,velvetleaf; [3],80
same,Velvetleaf plant response rating,"velvetleaf; Preemergence, 500 g ai/ha, 0 no effect, 100 complete control",100
same,Wheat plant response rating,wheat; [5],60
same,Wheat plant response rating,wheat; [6],85
same,"Plant response rating, Wheat",wheat; Preemergence,30
same,Wheat plant response rating,wheat; [4],85
same,Russian Thistle plant response rating,Russian thistle; [5],100
same,Russian Thistle plant response rating,Russian thistle; [6],100
same,"Plant response rating, Russian Thistle",Russian thistle; Preemergence,100
same,Russian Thistle plant response rating,Russian thistle; [4],100
same,Ragweed plant response rating,common ragweed; [6],70
same,Ragweed plant response rating,common ragweed; [4],80
same,"Plant response rating, Barnyardgrass",barnyardgrass; [8],30
same,"Plant response rating, Barnyardgrass",barnyardgrass; [7],90
same,"Plant response rating, Foxtail, Green","green foxtail; 16 g ai/ha, preemergence",35
same,"Foxtail, Green plant response rating","green foxtail; 125 g ai/ha, preemergence",98
same,"Plant response rating, Foxtail, Green","green foxtail; Preemergence, 62 g ai/ha",80
same,"Plant response rating, Foxtail, Green","green foxtail; Preemergence, 31 g ai/ha",65
same,Purple Nutsedge plant response rating,"purple nutsedge; 125 g ai/ha, preemergence",80
same,"Plant response rating, Purple Nutsedge","purple nutsedge; Preemergence, 62 g ai/ha",70
same,"Plant response rating, Purple Nutsedge","purple nutsedge; Preemergence, 31 g ai/ha",60
same,"Plant response rating, Sandbur","southern sandbur; 16 g ai/ha, preemergence",50
same,Sandbur plant response rating,southern sandbur; preemergence,100
same,"Plant response rating, Sandbur","southern sandbur; Preemergence, 62 g ai/ha",100
same,"Plant response rating, Sandbur","southern sandbur; Preemergence, 31 g ai/ha",100
same,"Plant response rating, Bluegrass","annual bluegrass; 16 g ai/ha, preemergence",35
same,Bluegrass plant response rating,"annual bluegrass; 125 g ai/ha, preemergence",100
same,"Plant response rating, Bluegrass","annual bluegrass; Preemergence, 62 g ai/ha",80
same,"Plant response rating, Bluegrass","annual bluegrass; Preemergence, 31 g ai/ha",70
same,"Plant response rating, Field Bindweed","field bindweed; 16 g ai/ha, preemergence",0
same,Field Bindweed plant response rating,"field bindweed; 125 g ai/ha, preemergence",40
same,"Plant response rating, Field Bindweed","field bindweed; Preemergence, 62 g ai/ha",20
same,"Plant response rating, Field Bindweed","field bindweed; Preemergence, 31 g ai/ha",0
same,"Plant response rating, Mallow","common mallow; 16 g ai/ha, preemergence",50
same,Mallow plant response rating,"common mallow; 125 g ai/ha, preemergence",100
same,"Plant response rating, Mallow","common mallow; Preemergence, 62 g ai/ha",100
same,"Plant response rating, Mallow","common mallow; Preemergence, 31 g ai/ha",75
CC(Oc1c(C[S+]([O-])c2cccc[n+]2[O-])c(C(F)(F)F)nn1C)C(F)(F)F (stereo not drawn) [Compound 77],"Plant response rating, Foxtail, Giant","giant foxtail; Postemergence, 125 g ai/ha",80
same,"Foxtail, Giant plant response rating",giant foxtail; [2],90
same,"Foxtail, Giant plant response rating",giant foxtail; [3],90
same,"Plant response rating, Foxtail, Giant","giant foxtail; Preemergence, 500 g ai/ha",100
same,"Plant response rating, Velvetleaf","velvetleaf; Postemergence, 125 g ai/ha",50
same,Velvetleaf plant response rating,velvetleaf; [2],90
same,Velvetleaf plant response rating,velvetleaf; [3],50
same,"Plant response rating, Velvetleaf","velvetleaf; Preemergence, 500 g ai/ha",100
same,Wheat plant response rating,wheat; [5],40
same,Wheat plant response rating,wheat; [6],80
same,"Plant response rating, Wheat",wheat; Preemergence,20
same,Wheat plant response rating,wheat; [4],95
same,Russian Thistle plant response rating,Russian thistle; [5],100
same,Russian Thistle plant response rating,Russian thistle; [6],100
same,"Plant response rating, Russian Thistle",Russian thistle; Preemergence,100
same,Russian Thistle plant response rating,Russian thistle; [4],100
same,Ragweed plant response rating,common ragweed; [5],100
same,Ragweed plant response rating,common ragweed; [6],100
same,"Plant response rating, Ragweed",common ragweed; Preemergence,100
same,Ragweed plant response rating,common ragweed; [4],100
same,"Plant response rating, Barnyardgrass",barnyardgrass; [8],0
same,"Plant response rating, Barnyardgrass",barnyardgrass; [7],75
same,"Plant response rating, Foxtail, Green","green foxtail; 16 g ai/ha, preemergence",25
same,"Foxtail, Green plant response rating","green foxtail; 62 g ai/ha, Preemergence",90
same,"Foxtail, Green plant response rating","green foxtail; 125 g ai/ha, preemergence",100
same,"Plant response rating, Foxtail, Green","green foxtail; Preemergence, 31 g ai/ha",65
same,"Plant response rating, Purple Nutsedge","purple nutsedge; 16 g ai/ha, preemergence",0
same,Purple Nutsedge plant response rating,"purple nutsedge; 125 g ai/ha, preemergence",75
same,"Plant response rating, Purple Nutsedge","purple nutsedge; Preemergence, 31 g ai/ha",60
same,"Plant response rating, Sandbur","southern sandbur; 16 g ai/ha, preemergence",0
same,Sandbur plant response rating,southern sandbur; preemergence,100
same,"Plant response rating, Sandbur","southern sandbur; Preemergence, 62 g ai/ha",95
same,"Plant response rating, Sandbur","southern sandbur; Preemergence, 31 g ai/ha",90
same,"Plant response rating, Bluegrass","annual bluegrass; 16 g ai/ha, preemergence",0
same,Bluegrass plant response rating,"annual bluegrass; 62 g ai/ha, Preemergence",0
same,Bluegrass plant response rating,"annual bluegrass; 125 g ai/ha, preemergence",75
same,"Plant response rating, Bluegrass","annual bluegrass; Preemergence, 31 g ai/ha",0
same,"Plant response rating, Field Bindweed","field bindweed; 16 g ai/ha, preemergence",0
same,Field Bindweed plant response rating,"field bindweed; 62 g ai/ha, Preemergence",35
same,Field Bindweed plant response rating,"field bindweed; 125 g ai/ha, preemergence",70
same,"Plant response rating, Field Bindweed","field bindweed; Preemergence, 31 g ai/ha",0
same,"Plant response rating, Mallow","common mallow; 16 g ai/ha, preemergence",65
same,Mallow plant response rating,"common mallow; 62 g ai/ha, Preemergence",90
same,Mallow plant response rating,"common mallow; 125 g ai/ha, preemergence",100
same,"Plant response rating, Mallow","common mallow; Preemergence, 31 g ai/ha",90

# Source: patent US20100298141A1, “SUBSTITUTED PYRIDINE N-OXIDE HERBICIDES” (E. I. DU PONT DE NEMOURS AND COMPANY, priority 2007, published 2010)
